The text below walks through data of patent publication EP4703359A1 (Shanghai Simr Biotechnology Co., Ltd., priority 2023, dated 2024).

Like-named read-outs stand apart in the source and are kept apart here.

Assay [1] deals with T1, α2-GABAA receptor (Homo sapiens, UniProt P18507+P47869).
T1 construct: expressed in transfected cells
Briefly: Whole-cell patch-clamp electrophysiology, positive allosteric modulatory activity in α2-GABAAR-HEK293 cells. In kind it is cell-based. As to conditions: compound 100 nM, GABA 0.10 to 0.11 µM (approximately EC7-8), normalized to reference compound CVL-865 (= 100%); for Emax at 0.1 µM: read-out: α2-GABAAR Positive allosteric modulatory activity. In short, it runs like this: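 HEK293 cells stably co-expressing α2β3γ2 GABAA receptor, whole-cell patch clamp at -60 mV. Compounds at 100 nM final applied with GABA 0.10–0.11 µM (~EC7-8) after GABA-only current stabilized. […]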

Assay [2] deals with T1, α2-GABAA receptor. Briefly: Radioactive ligand (3H-flunitrazepam) competitive binding assay, BZD site of membrane proteins of α2-GABAAR-HEK293 cells. The text has this: The α subunit, β subunit, and γ subunit are indispensable for forming a fully functional GABAA receptor. In this example, HEK293 cells stably expressing α2-GABAA receptors (α2-GABAAR) were constructed and screened respectively via liposome transfection (Felgner, P.L., et al. Proceedings of the National Academy of Sciences, 1987, 84: 7413-7417). The α2-GABAAR-HEK293 cell model co-expresses the α2 subunit (protein sequence referenced under GenBank accession number: NM_000807.4), β3 subunit (protein sequence referenced under GenBank accession number: NM_000814.5), and γ2 subunit (protein sequence referenced under GenBank accession number: NM_000816.3).
The above cell lines were subcultured. α2-GABAAR-HEK293 cells were amplified for testing the affinity of compounds to the benzodiazepine (BZD) site of GABAA receptors. Some of the α2-GABAAR-HEK293 cells in suspension during subculturing were plated on glass slides pre-treated with Poly-D-Lysine for electrophysiological testing (method reference: Patent CN 107344936 A, paragraph 0586).
The affinity of the compound for the α2-GABAA receptor was determined by competing with ^3H-flunitrazepam (isotope ^3H-labeled flunitrazepam) for binding to the BZD site of membrane proteins in HEK293 cells stably expressing human α2-GABAAR.
Membrane preparation: Cells were suspended in 50 mM Tris-HCl buffer (pH=7.4), homogenized on ice using a homogenizer for 20 seconds with 10 repetitions, and centrifuged at 4°C, 1000g for 10 minutes. The supernatant was collected, and the above steps were repeated. The supernatant was centrifuged at 4°C (33,800 × g; Thermo, rotor: A27-8x50) for 60 minutes, and the pellet was resuspended in Tris buffer (50 mM Tris-HCl, 10 mM MgCl2, 0.5 mM EDTA, 10% glycerol). The protein concentration was determined using the bicinchoninic acid (BCA) protein assay based on the copper ion reduction method (BCA kit purchased from Pierce (Annoron)). Aliquots of 1 mL were prepared and stored at -80°C.
Radioactive ligand competitive binding assay: This assay was conducted in a 200 µL system (96-well plate), containing 100 µL of cell membrane. The concentration of ^3H-flunitrazepam was 1 nM, and the concentration of the test compound ranged from […]. Flumazenil was used as a control. The low signal control well (Low Control, LC) was added with 1 µL of 2 mM flumazenil (final concentration 10 µM), while the high signal control well (High Control, HC) was added with 1 µL of dimethyl sulfoxide. The final concentration of the target membrane protein was 5 µg/well. All test compound stock solutions were prepared as 10 mM solutions in dimethyl sulfoxide. The working concentration of the samples was prepared by diluting all samples to 0.2 mM with dimethyl sulfoxide, followed by a 4-fold serial dilution to obtain a total of 8 concentration gradients. The 96-well plate was sealed with sealing film and then incubated on a shaker at room temperature for 1 hour. The GF/C filter plate was also soaked with a soaking buffer (0.3% PEI (polyethyleneimine, purchased from: Sigma-Aldrich, model: P314), stored at 4°C) for at least 0.5 hours. After the incubation was completed, the mixture was collected onto a GF/C filter plate using a cell harvester and washed four times with wash buffer (50 mM Tris-HCl, pH 7.4, stored at 4°C). After drying in a 50°C oven for 1 hour, the dried GF/C filter plate was sealed at the bottom with a film. The residual radioactivity on the filter membrane was detected using liquid scintillation counting. Each well was filled with 50 µL of scintillation fluid and sealed. Readings were taken using a Microbeta^2 (microplate counter, purchased from PerkinElmer, model: CNLL0153). The inhibitory activity of the test sample on the binding of ^3H-flunitrazepam to GABAA receptor membrane protein was calculated. […]

[3] abbreviates: competition with 1 nM 3H-flunitrazepam; HEK293 membranes expressing α2, β3, γ2 subunits; Ki calculated from IC50; read-out: α2 Ki.

Take `CCCNC(=O)c1nc2c(-c3cccc(C#N)c3)cccn2c1N` [Example 35, 3-Amino-8-(3-cyanophenyl)-N-propylimidazo[1,2-a]pyridine-2-carboxamide]: the Emax at 0.1 µM on α2-GABAA receptor [1] came out at 108%. The inhibitory constant (Ki) on α2-GABAA receptor [2] (setting [3]) is 0.0133 µM.

Regarding `CCCNC(=O)c1nc2c(-c3cccc(CC#N)c3)cccn2c1N` [Example 36, 3-amino-8-(3-(cyanomethyl)phenyl)-N-propylimidazo[1,2-a]pyridine-2-carboxamide], the Emax at 0.1 µM at α2-GABAA receptor [1] was determined as 181%. Besides, the Ki at α2-GABAA receptor [2] (setting [3]) is 0.0212 µM.

Turning to `CCCNC(=O)c1nc2c(-c3cccc(CCC#N)c3)cccn2c1N` [Example 37, 3-Amino-8-(3-(2-cyanoethyl)phenyl)-N-propylimidazo[1,2-a]pyridine-2-carboxamide], at α2-GABAA receptor [1], the Emax at 0.1 µM turned out to be 105%. Further, the Ki at α2-GABAA receptor [2] (setting [3]) is 0.0336 µM.

For `CCCNC(=O)c1nc2c(-c3cccc(F)c3)cccn2c1N` [Example 46, 3-Amino-8-(3-fluorophenyl)-N-propylimidazo[1,2-a]pyridine-2-carboxamide], the Emax at 0.1 µM on α2-GABAA receptor [1] is 50%. The Ki on α2-GABAA receptor [2] (setting [3]) was 0.0187 µM.

For the molecule `CCCNC(=O)c1nc2c(-c3cccc(C)c3)cccn2c1N` [Example 48, 3-Amino-N-propyl-8-(3-methylphenyl)imidazo[1,2-a]pyridine-2-carboxamide], the Emax at 0.1 µM at α2-GABAA receptor [1] amounted to 71%. The Ki at α2-GABAA receptor [2] (setting [3]) was 0.0142 µM.

For `CCCNC(=O)c1nc2c(-c3cc(C)ccc3OC)cccn2c1N` [Example 49, 3-Amino-8-(2-methoxy-5-methylphenyl)-N-propylimidazo[1,2-a]pyridine-2-carboxamide], the Emax at 0.1 µM on α2-GABAA receptor [1] worked out at 156%. Moreover, the Ki on α2-GABAA receptor [2] (setting [3]) was 0.0192 µM.

On to `CCCNC(=O)c1nc2c(-c3cc(C)ccc3F)cccn2c1N` [Example 50, 3-Amino-8-(2-fluoro-5-methylphenyl)-N-propylimidazo[1,2-a]pyridine-2-carboxamide], for which the Emax at 0.1 µM at α2-GABAA receptor [1] is 104%. The Ki at α2-GABAA receptor [2] (setting [3]) is 0.00395 µM.

Consider `CCCNC(=O)c1nc2c(-c3cc(F)ccc3OC)cccn2c1N` [Example 51], for which the “α2-GABAAR Positive allosteric modulatory activity” value on α2-GABAA receptor [1] came out at 121%. Moreover, at α2-GABAA receptor [2] (read-out: α2 Ki; competition with 1 nM 3H-flunitrazepam; HEK293 membranes expressing α2, β3, γ2 subunits; Ki calculated from IC50), the Ki was 0.026 µM.

`CCCNC(=O)c1nc2c(-c3cc(F)ccc3F)cccn2c1N` [Example 52, 3-Amino-8-(2,5-difluorophenyl)-N-propylimidazo[1,2-a]pyridine-2-carboxamide]: the Emax at 0.1 µM on α2-GABAA receptor [1] came to 63%. Further, the Ki at α2-GABAA receptor [2] (setting [3]) was 0.0112 µM.

Consider `CCCNC(=O)c1nc2c(-c3ccc(F)cc3OC)cccn2c1N` [Example 53, 3-Amino-8-(4-fluoro-2-methoxyphenyl)-N-propylimidazo[1,2-a]pyridine-2-carboxamide], for which the Emax at 0.1 µM at α2-GABAA receptor [1] came to 92%. For the same molecule, the Ki on α2-GABAA receptor [2] (setting [3]) was 0.057 µM.

Regarding `CCCNC(=O)c1nc2c(-c3cc(F)cc(C#N)c3)cccn2c1N` [Example 55, 3-Amino-8-(3-cyano-5-fluorophenyl)-N-propylimidazo[1,2-a]pyridine-2-carboxamide], the Emax at 0.1 µM at α2-GABAA receptor [1] amounted to 89%. Further, at α2-GABAA receptor [2] (setting [3]), the Ki was 0.0278 µM.

`CCCNC(=O)c1nc2c(-c3ccc(F)c(C#N)c3)cccn2c1N` [Example 56, 3-Amino-8-(3-cyano-4-fluorophenyl)-N-propylimidazo[1,2-a]pyridine-2-carboxamide]: on α2-GABAA receptor [1], the Emax at 0.1 µM amounted to 95%. Moreover, the Ki at α2-GABAA receptor [2] (setting [3]) was 0.0382 µM.

Take `CCCNC(=O)c1nc2c(-c3cccc(C#N)c3F)cccn2c1N` [Example 57, 3-Amino-8-(3-cyano-2-fluorophenyl)-N-propylimidazo[1,2-a]pyridine-2-carboxamide]: the Emax at 0.1 µM at α2-GABAA receptor [1] came out at 167%. In addition, the Ki on α2-GABAA receptor [2] (setting [3]) is 0.00332 µM.

For `CCCNC(=O)c1nc2c(-c3cc(C(F)(F)F)ccc3OC)cccn2c1N` [Example 58, 3-Amino-8-(2-methoxy-5-(trifluoromethyl)phenyl)-N-propylimidazo[1,2-a]pyridine-2-carboxamide], the Emax at 0.1 µM at α2-GABAA receptor [1] was 103%. The Ki on α2-GABAA receptor [2] (setting [3]) is 0.0345 µM.

Consider `CCCNC(=O)c1nc2c(-c3cc(C#N)ccc3OC)cccn2c1N` [Example 60, 3-Amino-8-(5-cyano-2-methoxyphenyl)-N-propylimidazo[1,2-a]pyridine-2-carboxamide], for which the Emax at 0.1 µM at α2-GABAA receptor [1] stood at 140%. Further, the Ki at α2-GABAA receptor [2] (setting [3]) was 0.0057 µM.

In the case of `CCCNC(=O)c1nc2c(-c3ccccc3OC)cccn2c1N` [Example 61, 3-Amino-8-(2-methoxyphenyl)-N-propylimidazo[1,2-a]pyridine-2-carboxamide], the Emax at 0.1 µM at α2-GABAA receptor [1] was 91%. For the same molecule, the Ki on α2-GABAA receptor [2] (setting [3]) was 0.0394 µM.

Take `CCCNC(=O)c1nc2c(-c3cc(Cl)ccc3OC)cccn2c1N` [Example 62, 3-Amino-8-(5-chloro-2-methoxyphenyl)-N-propylimidazo[1,2-a]pyridine-2-carboxamide]: the Emax at 0.1 µM at α2-GABAA receptor [1] stood at 192%. In addition, on α2-GABAA receptor [2] (setting [3]), the Ki is 0.00529 µM.

For the molecule `CCCNC(=O)c1nc2c(-c3cccc(OC)c3F)cccn2c1N` [Example 63, 3-Amino-8-(2-fluoro-3-methoxyphenyl)-N-propylimidazo[1,2-a]pyridine-2-carboxamide], at α2-GABAA receptor [1], the Emax at 0.1 µM was 71%. Moreover, on α2-GABAA receptor [2] (setting [3]), the Ki was 0.0102 µM.

As for `CCCNC(=O)c1nc2c(-c3cccc(C)c3F)cccn2c1N` [Example 64, 3-Amino-8-(2-fluoro-3-methylphenyl)-N-propylimidazo[1,2-a]pyridine-2-carboxamide], the Emax at 0.1 µM on α2-GABAA receptor [1] was determined as 93%. The Ki on α2-GABAA receptor [2] (setting [3]) was 0.00337 µM.

With `CCCNC(=O)c1nc2c(-c3cc(C(F)F)ccc3OC)cccn2c1N` [Example 67, 3-Amino-8-(5-(difluoromethyl)-2-methoxyphenyl)-N-propylimidazo[1,2-a]pyridine-2-carboxamide], the Emax at 0.1 µM on α2-GABAA receptor [1] was 138%. At α2-GABAA receptor [2] (setting [3]), the Ki was 0.015 µM.

As to `CCCNC(=O)c1nc2c(-c3cc(C4CC4)ccc3OC)cccn2c1N` [Example 68, 3-Amino-8-(5-cyclopropyl-2-methoxyphenyl)-N-propylimidazo[1,2-a]pyridine-2-carboxamide], the Emax at 0.1 µM at α2-GABAA receptor [1] is 92%. The Ki at α2-GABAA receptor [2] (setting [3]) is 0.051 µM.

As to `CCCNC(=O)c1nc2c(-c3cc(OC)ccc3OC)cccn2c1N` [Example 69, 3-Amino-8-(2,5-dimethoxyphenyl)-N-propylimidazo[1,2-a]pyridine-2-carboxamide], on α2-GABAA receptor [1], the Emax at 0.1 µM worked out at 70%. Moreover, the Ki on α2-GABAA receptor [2] (setting [3]) was 0.0308 µM.

As for `CCCNC(=O)c1nc2c(-c3cc(-c4cnnc5c4ncn5CC)ccc3OC)cccn2c1N` [Example 71, 3-Amino-8-(5-(7-ethyl-7H-imidazo[4,5-c]pyridazin-4-yl)-2-methoxyphenyl)-N-propylimidazo[1,2-a]pyridine-2-carboxamide], the Emax at 0.1 µM on α2-GABAA receptor [1] was 130%. In addition, at α2-GABAA receptor [2] (setting [3]), the Ki was 0.00743 µM.

In the case of `CCCNC(=O)c1nc2c(-c3c(Cl)cccc3OC)cccn2c1N` [Example 72, 3-Amino-8-(2-chloro-6-methoxyphenyl)-N-propylimidazo[1,2-a]pyridine-2-carboxamide], the Emax at 0.1 µM at α2-GABAA receptor [1] worked out at 44%. For the same molecule, the Ki on α2-GABAA receptor [2] (setting [3]) is 0.095 µM.

Usually Ki stands for the equilibrium dissociation constant of an inhibitor or competing ligand from its target.
